Counter-ions that a name gives are not always drawn. Like-named read-outs stand apart in the source and are kept apart here. Values belong to the compound of their own block, whether it stands above or below them.
Legend:
[1] = Solubility and solution stability; format: physicochemical
Experimental: Solutions of the polyene antibiotics amphotericin B (30 mM) and nystatin (50 mM) were prepared in DMSO. The primaricin aqueous suspension obtained from Sigma was lyophilized and resuspended in various solvents. […] The polyene antibiotics were combined with the various lipids in a solvent mixture of DMSO, DMSO:MP or DMSO:EtOH (7:3) and then injected into the aqueous phase. The preparations formed were transferred to a dialysis bag and dialyzed versus 100 volumes of distilled water, changed twice unless otherwise indicated. The ratio of the components, exact solvent mixtures and other conditions are given in the results. Samples of the preparations were dissolved in methanol and the polyene concentration determined spectrophotometrically (Szoka et al., supra): amphotericin B at 406 nm, nystatin at 306 nm and primaricin at 318 nm.

[2] = Acute mortality (death within 24 hours of drug administration) in immunosuppressed rabbits challenged with A. fumigatus; format: in vivo, rabbit; settings: animals dead/total
Experimental: Liposomes were prepared with amphotericin B and cholesterol sulfate as described in Example 3. An immunosuppressive neutropenic rabbit model of invasive aspergillosis was used to compare the lipidic particle formulation with free amphotericin B.
Twenty-eight rabbits were immunosuppressed by administration of cyclophosphamide and triamcinolone. The rabbits were then challenged with 10^6 A. fumigatus. After 24 hours, the rabbits were divided into three treatment groups: eight rabbits received 4.5 mg/Kg/day free amphotericin B; four rabbits received 7.5 mg/Kg/day free amphotericin B; five rabbits received 6-9 mg/Kg/day amphotericin B lipidic particles (equivalent to 3-4.5 mg/Kg/day amphotericin B); three rabbits received 15 mg/Kg/day amphotericin B lipidic particles (equivalent to 7.5 mg/Kg/day amphotericin B); and eight rabbits were controls.
Treatment was continued for 30 days for the 4.5 mg/Kg free amphotericin B and 6-9 mg/Kg lipidic particle treatment groups.

A. fumigatus = assay: Immunosuppressive neutropenic rabbit model of invasive aspergillosis, organ cultures; format: in vivo, A. fumigatus (in rabbits); settings: 30 days; Free AmpB 4.5 mg/Kg/day; Lipidic-AmpB 6-9 mg/Kg/day
[3] = pH 7.4; cited from earlier work

solubility in DMSO [1]: very soluble
stability of solution in DMSO:MP [1]: stable yellow solution
Compound: CC1C/C=C/C=C/C=C/C=C/C(OC2OC(C)C(O)C(N)C2O)CC2OC(O)(CC(O)CC3OC3/C=C/C(=O)O1)CC(O)C2C(=O)O (stereo not shown) [Primaricin]

solubility in 1-methyl-2-pyrrolidinone ([1]; 1-methyl-2-pyrrolidinone): exceedingly soluble
Compound: CC(C)CCC[C@@H](C)[C@H]1CC[C@H]2[C@@H]3CC=C4C[C@@H](O)CC[C@]4(C)[C@H]3CC[C@]12C [Cholesterol]

solubility in DMSO [1]: soluble
Compound: CC(C)CCC[C@@H](C)[C@H]1CC[C@H]2[C@@H]3CC=C4C[C@@H](OC(=O)CCC(=O)O)CC[C@]4(C)[C@H]3CC[C@]12C [Chems, cholesterol hemisuccinate]

Compound: CC1/C=C/C=C/C=C/C=C/C=C/C=C/C=C/C(OC2OC(C)C(O)C(N)C2O)CC2OC(O)(CC(O)CC(O)C(O)CCC(O)CC(O)CC(=O)OC(C)C(C)C1O)CC(O)C2C(=O)O (stereo not shown) [Free AmpB]
Acute mortality (death within 24 hours) ([2]; 4.5 mg/Kg): 3/8
Acute mortality (death within 24 hours) ([2]; 7.5 mg/Kg): 4/4
Organ Cultures (No. Sterile/Total), Kidney (A. fumigatus): 5/5
Organ Cultures (No. Sterile/Total), Liver (A. fumigatus): 5/5
Organ Cultures (No. Sterile/Total), Lung (A. fumigatus): 3/5

Compound: COc1cccc2c1C(=O)c1c(O)c3c(c(O)c1C2=O)C[C@@](O)(C(=O)CO)C[C@@H]3O[C@H]1C[C@H](N)[C@H](O)[C@H](C)O1 [doxorubicin]
aqueous solubility [3]: low aqueous solubility
solubility in DMSO ([1]; DMSO): very soluble

Compound: cis-platinum
solubility in DMSO ([1]; DMSO): exceedingly soluble

Compound: CC(C)CCC[C@@H](C)[C@H]1CC[C@H]2[C@@H]3CC=C4C[C@@H](OS(=O)(=O)O)CC[C@]4(C)[C@H]3CC[C@]12C [CholSO4, cholesterol sulfate]
solubility in DMSO ([1]; DMSO): soluble

— US5549910A, “Preparation of liposome and lipid complex compositions” (priority 1994, dated 1996)
